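Grown in 96-well plates, cells were treated for 48 hours with each compound at five concentrations. Insufficient inhibition: endpoint recorded as highest concentration tested. GI50 = concentration required for 50% inhibition of growth. The concentration for full growth arrest is given as TGI.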
Key:
Assay in all cases: NCI-60 cell line screen, 48 h; in the data active = GI50 below about 0.43 µM; inactive = the rest
[1] = test system: 786-0 renal
[2] = test system: CAKI-1 renal
[3] = test system: HCC-2998 colon
[4] = test system: HCT-15 colon
[5] = test system: HL-60(TB) leukemia
[6] = test system: NCI-H522 lung
[7] = test system: SF-539 CNS
[8] = test system: SN12C renal
[9] = test system: U251 CNS
[10] = test system: HS 578T breast
[11] = test system: NCI/ADR-RES ovarian

COc1cc2c(oc(=O)c3c4occc4cc(OC)c23)c2cccc(O)c12
> 100 µM: TGI [1] | TGI [2] | TGI [3] | TGI [4] | TGI [5] | TGI [6] | TGI [7] | TGI [8] | TGI [9]

C[N+]1(C)CCCC(C#N)(c2ccccc2)CC1 (configuration not stated)
> 100 µM: TGI [1] | TGI [2] | TGI [3] | TGI [4] | TGI [5] | TGI [10] | TGI [11] | TGI [9]

O=C(NNC(=O)c1ccco1)c1ccco1
> 100 µM: TGI [1] | TGI [2] | TGI [4] | TGI [5] | TGI [10] | TGI [6] | TGI [11] | TGI [7] | TGI [8] | TGI [9]

ClC1=NSSC1(Cl)Cl
38.8 µM: TGI [6]
41.7 µM: TGI [8]
> 100 µM: TGI [3] | TGI [11] | TGI [7] | TGI [9]
5.25 µM: TGI [5]
34.8 µM: TGI [2]
60 µM: TGI [4]
59.3 µM: TGI [1]

OC12CCC3(OC4CCCCO4)c4ccccc4C3C1c1ccccc12 (configuration not stated)
> 100 µM: TGI [1] | TGI [4] | TGI [5] | TGI [6] | TGI [8] | TGI [9]

CN(C(=O)Cc1ccccc1)n1cn[n+](CC(=O)OC(C)(C)C)c1
> 10 µM: TGI [1] | TGI [2] | TGI [3] | TGI [4] | TGI [10] | TGI [6] | TGI [11] | TGI [7] | TGI [8] | TGI [9]

C/C(=C\C(=O)Nc1ccc2n[nH]nc2c1)Nc1ccc2n[nH]nc2c1
> 100 µM: TGI [1] | TGI [2] | TGI [3] | TGI [4] | TGI [5] | TGI [6] | TGI [7] | TGI [8] | TGI [9]

Cc1ccc(/C=c2\cc3oc(=O)c4cccc(c4-3)c2=O)cc1
> 100 µM: TGI [1] | TGI [2] | TGI [3] | TGI [4] | TGI [5] | TGI [6] | TGI [11] | TGI [7] | TGI [8] | TGI [9]

CN(C)C(=O)C(F)(F)C(c1ccccc1Br)C1C(=O)N(C)C(=O)N(C)C1=O (configuration not stated)
> 100 µM: TGI [1] | TGI [2] | TGI [3] | TGI [4] | TGI [11] | TGI [9]

CCOc1ccc(C2=NN(CC)C(=O)C(C3C(=O)N(c4ccccc4)N=C3C)C2)cc1 (configuration not stated)
> 100 µM: TGI [1] | TGI [2] | TGI [3] | TGI [4] | TGI [5] | TGI [6] | TGI [7] | TGI [9]

C[C@]12CC[C@H]3[C@@H](CC=C4C[C@@H](O)CC[C@@]43C)[C@@H]1C/C(=C\c1cccnc1)[C@@H]2O
55.2 µM: TGI [8]
96 µM: TGI [1]
42.5 µM: TGI [6]
81.6 µM: TGI [7]
28.7 µM: TGI [9]
> 100 µM: TGI [4] | TGI [11]
33.3 µM: TGI [10]

O=C(/C=C/c1ccc(OCc2ccccc2)cc1)NCc1ccc(C(=O)NCCc2ccccc2)cc1
> 100 µM: TGI [1] | TGI [2] | TGI [3] | TGI [4] | TGI [10] | TGI [6] | TGI [11] | TGI [7] | TGI [8] | TGI [9]

C=CCOCC1C2CCC3(OCCO3)C21 (configuration not stated)
87.5 µM: TGI [2]
> 100 µM: TGI [1] | TGI [3] | TGI [4] | TGI [6] | TGI [11] | TGI [7] | TGI [8] | TGI [9]

COC(=O)[C@@H]1c2c(oc3cc(CO)cc(O)c3c2=O)C=C[C@H]1O
23.6 µM: TGI [8]
47.5 µM: TGI [11]
12 µM: TGI [1]
22.5 µM: TGI [9]
9.41 µM: TGI [7]
3.64 µM: TGI [6]
55.8 µM: TGI [10]
9.48 µM: TGI [4]
22.4 µM: TGI [2]

Cc1ccc(C)c2c1C1CCCCC3(OCCCO3)C21O (configuration not stated)
> 100 µM: TGI [1] | TGI [2] | TGI [3] | TGI [4] | TGI [5] | TGI [6] | TGI [7] | TGI [8] | TGI [9]

CCOC(=O)C(O)(CC1=NC(C(=O)OC)(C(=O)OC)C(c2cccc(C=O)c2)O1)C(=O)OCC (configuration not stated)
> 100 µM: TGI [1] | TGI [2] | TGI [3] | TGI [4] | TGI [5] | TGI [11] | TGI [8] | TGI [9]

CNC(=S)N/N=C/C(C)=N/NC(=S)NC
> 100 µM: TGI [1] | TGI [3] | TGI [4] | TGI [6] | TGI [7] | TGI [8] | TGI [9]

Cc1ccc(S(=O)(=O)N/N=C2\C=CC3(CC2)C(=O)N(I)c2ccccc23)cc1 (configuration not stated)
> 100 µM: TGI [1] | TGI [2] | TGI [3] | TGI [4] | TGI [11] | TGI [7] | TGI [8] | TGI [9]

CN(C)S(=O)(=O)c1ccc2[nH]c(O)c(C3=Nc4ccccc4C3=O)c2c1
24.9 µM: TGI [9]
50.3 µM: TGI [1]
> 100 µM: TGI [2] | TGI [3] | TGI [4] | TGI [6] | TGI [11] | TGI [8]
76.9 µM: TGI [10]

COc1ccc(-c2nc3ccccc3c(=O)[nH]2)cc1
> 100 µM: TGI [1] | TGI [2] | TGI [4] | TGI [5] | TGI [6] | TGI [11] | TGI [7] | TGI [8] | TGI [9]
31.9 µM: TGI [10]

Cc1ccc(S(=O)(=O)OC[C@@]2(C)CC[C@]3(C)CC[C@]4(C)C(=C3C2)C=C[C@@H]2[C@@]3(C)CCCNC(C)(C)[C@@H]3CC[C@]24C)cc1
3.11 µM: TGI [7]
3.36 µM: TGI [6]
4.59 µM: TGI [11]
4.26 µM: TGI [10]
inactive: GI50 [2] 1.61 µM | GI50 [10] 1.94 µM | GI50 [6] 1.7 µM | GI50 [11] 2.05 µM | GI50 [7] 1.71 µM | GI50 [9] 1.66 µM
3.17 µM: TGI [9]
3.06 µM: TGI [2]

COc1cccc(NC(=O)CC(=O)NN)c1
> 100 µM: TGI [1] | TGI [2] | TGI [4] | TGI [5] | TGI [10] | TGI [6] | TGI [11] | TGI [7] | TGI [8] | TGI [9]

COC1OC2COC(=O)c3cc(O)c(O)c(O)c3-c3c(cc(O)c(O)c3O)C(=O)OC2C(O)C1O (configuration not stated)
> 100 µM: TGI [1] | TGI [2] | TGI [4] | TGI [10] | TGI [6] | TGI [11] | TGI [7] | TGI [9]
30.1 µM: TGI [8]

CCOC(=O)[C@@]12C[C@](/C=C/OC)(O[Si](C)(C)C)[C@@]13c1cc(OC)c(OC)cc1CCN3C(=O)C2=O
> 100 µM: TGI [1] | TGI [2] | TGI [4] | TGI [10] | TGI [11] | TGI [7] | TGI [8] | TGI [9]

CC(C)c1cc(=O)[nH]c2cc(N)ccc12
> 100 µM: TGI [1] | TGI [2] | TGI [3] | TGI [4] | TGI [11] | TGI [7] | TGI [8] | TGI [9]

Nc1nc(Cl)c2ncn(CCCC(c3ccccc3)P(=O)(O)O)c2n1 (configuration not stated)
> 100 µM: TGI [1] | TGI [2] | TGI [3] | TGI [4] | TGI [5] | TGI [6] | TGI [7] | TGI [8] | TGI [9]

CC(=O)Oc1ccc2cc(Oc3cc(Cl)c(Cl)cc3Cl)c(=O)oc2c1
30.8 µM: TGI [3]
28.1 µM: TGI [8]
65 µM: TGI [10]
29 µM: TGI [1]
33.6 µM: TGI [2]
34.6 µM: TGI [6]
26.3 µM: TGI [4]
68.8 µM: TGI [5]
32.5 µM: TGI [9]
31.2 µM: TGI [7]

CN(C)C(=O)C(F)(F)C(c1ccccc1)C1C(=O)N(C)C(=O)N(C)C1=O (configuration not stated)
> 100 µM: TGI [1] | TGI [2] | TGI [3] | TGI [4] | TGI [11] | TGI [9]

NC(=S)NNCC(=O)CC(O)(C(F)(F)F)C(F)(F)Cl (configuration not stated)
> 100 µM: TGI [1] | TGI [2] | TGI [4] | TGI [5] | TGI [10] | TGI [6] | TGI [11] | TGI [7] | TGI [9]

O=C(C[N+]12CN3CN(CN(C3)C1)C2)c1ccc(-c2ccccc2)cc1
86.3 µM: TGI [4]
32.2 µM: TGI [9]
> 100 µM: TGI [2] | TGI [10]
89.4 µM: TGI [11]
28.9 µM: TGI [3]
45.9 µM: TGI [1]
45.1 µM: TGI [8]
38.2 µM: TGI [6]

CCCCCCCCCCCC1N=C(N)N=C(N)N1c1cccc(Br)c1 (configuration not stated)
4.77 µM: TGI [10]
2.42 µM: TGI [3]
2.95 µM: TGI [6]
1.98 µM: TGI [9]
39.6 µM: TGI [11]
26.3 µM: TGI [4]
4.12 µM: TGI [2]
inactive: GI50 [2] 1.8 µM | GI50 [3] 1.16 µM | GI50 [4] 5.2 µM | GI50 [10] 2.08 µM | GI50 [6] 1.51 µM | GI50 [11] 14.6 µM | GI50 [9] 0.631 µM

O=C1c2cc3c(cc2NC(c2ccccc2F)C1O)OCO3 (configuration not stated)
> 66.9 µM: TGI [8]
35.2 µM: TGI [7]
> 64.7 µM: TGI [11]
> 75.1 µM: TGI [3]
> 77.8 µM: TGI [2]
> 100 µM: TGI [4]
> 68 µM: TGI [9]
34.4 µM: TGI [6]
48.2 µM: TGI [10]
48.1 µM: TGI [1]

CC(=O)N[C@@H](Cc1ccc(O)cn1)C(=O)NCc1ccc(Cl)cc1
> 100 µM: TGI [1] | TGI [2] | TGI [3] | TGI [4] | TGI [5] | TGI [6] | TGI [11] | TGI [7] | TGI [8] | TGI [9]

CC(C)(C)OC(=O)Cn1ncn(NC(=O)Cc2ccccc2)c1=S
> 10 µM: TGI [1] | TGI [2] | TGI [3] | TGI [4] | TGI [10] | TGI [6] | TGI [11] | TGI [7] | TGI [8] | TGI [9]
